Assay results published in the NIST ThermoML archive (doi:10.1021/je100765j).
Numbers after ± are expanded uncertainties.

Experiment: xn = mol fraction of the nth substance listed
Conditions: 101 kPa, Liquid; for speed of sound: Sing-around technique in a fixed-path interferometer

CCC(C)Cl (configuration not stated) [2-chlorobutane] + CC(C)OC(C)C
Conditions | mass density, 298.15 K [kg/m3] | mass density, 303.15 K [kg/m3] | mass density, 308.15 K [kg/m3] | mass density, 313.15 K [kg/m3] | speed of sound, 303.15 K [m/s] | speed of sound, 308.15 K [m/s] | speed of sound, 313.15 K [m/s]
x1 = 0.0519 | 724.535 ± 0.94 | 719.276 ± 0.95 | 713.939 ± 0.96 | 708.573 ± 0.97 | 979.57 ± 1.1 | 957.51 ± 1.1 | 935.64 ± 1.1
x1 = 0.0988 | 730.22 ± 0.93 | 724.919 ± 0.94 | 719.569 ± 0.95 | 714.181 ± 0.96 | 982.73 ± 1.1 | 960.7 ± 1.1 | 938.87 ± 1.1
x1 = 0.2006 | 742.995 ± 0.9 | 737.649 ± 0.91 | 732.261 ± 0.92 | 726.833 ± 0.93 | 989.5 ± 1.1 | 967.56 ± 1.1 | 945.88 ± 1.1
x1 = 0.3211 | 758.802 ± 0.87 | 753.411 ± 0.88 | 747.973 ± 0.89 | 742.484 ± 0.9 | 997.66 ± 1.1 | 975.92 ± 1.1 | 954.34 ± 1.1
x1 = 0.4201 | 772.485 ± 0.84 | 767.06 ± 0.85 | 761.571 ± 0.86 | 756.049 ± 0.87 | 1004.4 ± 1.1 | 982.81 ± 1.1 | 961.42 ± 1.1
x1 = 0.532 | 788.75 ± 0.81 | 783.263 ± 0.82 | 777.737 ± 0.83 | 772.166 ± 0.84 | 1012.3 ± 1.1 | 990.84 ± 1.1 | 969.67 ± 1.1
x1 = 0.6244 | 802.882 ± 0.78 | 797.355 ± 0.79 | 791.784 ± 0.8 | 786.18 ± 0.81 | 1018.8 ± 1.1 | 997.54 ± 1.1 | 976.57 ± 1.1
x1 = 0.726 | 819.123 ± 0.75 | 813.555 ± 0.76 | 807.944 ± 0.77 | 802.287 ± 0.78 | 1026.1 ± 1.1 | 1005 ± 1.1 | 984.26 ± 1.1
x1 = 0.8163 | 834.307 ± 0.72 | 828.698 ± 0.73 | 823.046 ± 0.74 | 817.349 ± 0.75 | 1032.6 ± 1.1 | 1011.6 ± 1.1 | 991.15 ± 1.1
x1 = 0.8817 | 845.724 ± 0.69 | 840.084 ± 0.7 | 834.402 ± 0.72 | 828.683 ± 0.73 | 1037.2 ± 1.1 | 1016.4 ± 1.1 | 996.09 ± 1.1
x1 = 0.9634 | 860.57 ± 0.66 | 854.895 ± 0.68 | 849.179 ± 0.69 | 843.442 ± 0.7 | 1043.2 ± 1.1 | 1022.6 ± 1.1 | 1002.5 ± 1.1
